ChEMBL document CHEMBL3507680, “University of Dundee, Gates Library screen for HepG2 cell viability”

test: Human HepG2 cell viability assay in 384 well format; format: toxicity, cell-based; parameters: dose 125 nL, time 70.5 hour; concentration not given beside the values; conditions: HepG2 cells, read-out: Inhibition

| Compound | cytotoxicity at 70.5 h [%] |
| --- | --- |
| COCCN1C(=O)C[C@H]2[C@H]1CCN2C(=O)c1ccc[nH]1 | -10.2 |
| Cc1nc(CO[C@@H]2CN(Cc3ccco3)[C@@H]3COC[C@@H]32)cs1 | -14.3 |
| Cn1ncc2c1C(COCC1CC1)CN(Cc1ccncc1)C2 (stereo not given) | -8.73 |
| N#Cc1ccc(OC[C@]23COC[C@H]2CN(Cc2ccoc2)C3)nc1 | 0.658 |
| Cn1cc(N2CCC3(CCN(C(=O)[C@H]4CCCO4)C3)C2=O)cn1 (stereo not given in full) | -7.22 |
| COC[C@@]12CCO[C@@H]1CCN(C(=O)COc1ccc(C)cc1)C2 | -2.71 |
| Cc1occc1C(=O)N1C[C@@H]2CCCO[C@@H]2[C@H](N(C)Cc2ccco2)C1 | -0.88 |
| O=C(c1cocn1)N1CCC[C@]2(C[C@@H](Oc3ncccc3F)CO2)C1 | -5.09 |
| Cc1c(S(=O)(=O)NCC(C)C)cnn1C | -14.3 |
| Cc1c(Cn2cc(Cl)c(N)n2)cnn1C | -13.5 |
| CCn1ncc(Cn2cc(Cl)c(N)n2)c1C | 19.5 |
| CC(C(=O)O)n1nc(C(F)(F)F)c(Br)c1C1CC1 (stereo not given) | -14 |
| O=C(O)C1CCCN1c1nc(C2CC2)cc(C(F)(F)F)n1 (stereo not given) | 2.63 |
| O=C(O)C1CCCN1c1nc(-c2ccc(Cl)cc2)cc(C(F)(F)F)n1 (stereo not given) | -3.11 |
| COC(=O)c1ccc(OC)c(Cn2cc(N)cn2)c1 | -19.2 |
| CCn1cc(-c2cc(C(F)(F)F)nn2CCC#N)cn1 | -9.49 |
| Cn1cc(-c2cc(C(F)(F)F)nn2CCC#N)cn1 | 11.5 |
| CCCn1nc(C)c2c(C(F)F)cc(=O)n(CC(=O)O)c21 | -8.97 |
| Cc1nn(CC(=O)O)c2nccc(-c3ccc(F)cc3)c12 | -8.88 |
| O=C(O)Cn1nc(C2CC2)c2c(-c3ccco3)ccnc21 | 30.2 |
| Cc1nn(-c2ccccc2)c2c1c(C(F)F)cc(=O)n2CC(=O)O | -9.31 |
| O=C(O)c1cc(C2CC2)nc2c(Cl)cnn12 | -7.04 |
| COC(=O)c1sc(C(F)(F)F)cc1OC | -12.4 |

| Compound | cytotoxicity at 70.5 h [%] |
| --- | --- |
| COC(=O)c1c(Cl)c(C)nc2onc(C)c12 | -9.83 |
| CCN(Cc1nonc1C)C(=O)c1cnccn1 | -8.37 |
| Cn1nnc(NCc2ccc(-c3ccc(Cl)cc3)o2)n1 | -4.59 |
| CCCn1nnc(NCc2ccc(-c3ccc(Br)cc3)o2)n1 | -11.9 |
| CCn1nnc(NCc2cc(Cl)cc(Cl)c2OC)n1 | 18.4 |
| CCn1nnc(NCc2cc(Br)cc(Br)c2OC)n1 | -18.9 |
| CC(=O)Nc1ncc(S(=O)(=O)Nc2ccccc2F)s1 | -9.78 |
| CC(=O)Nc1ncc(S(=O)(=O)Nc2ccc(C)cc2)s1 | -1.08 |
| COC(=O)c1ccc(NS(=O)(=O)c2cnc(NC(C)=O)s2)cc1 | -12 |
| Cc1cc(NCCCOC(C)C)c2nncn2n1 | 7.73 |
| Cc1nn(C)c(C)c1CN1CCNCC1 | -4.45 |
| Cc1ccc(NC(=O)Nc2c(O)oc3ccccc3c2=O)cc1 | 4.11 |
| CSc1cccc(NC(=O)Nc2c(O)oc3ccccc3c2=O)c1 | -11.5 |
| Cc1c2ncn(CC(=O)N(C)C)c(=O)c2nn1C | -8.37 |
| O=c1c2cc3c(cc2nnn1Cc1ccccc1Cl)OCCO3 | 12.4 |
| Cc1nnsc1C(=O)NCCNS(=O)(=O)c1cccs1 | 6.87 |
| O=C(c1ccc(Cn2cc(Br)cn2)cc1)N1CCCC1 | 30.7 |
| CCn1cc(CNC(=O)C(C)C)cn1 | 0.0963 |
| Cc1c(Br)c(C(=O)NC(C)c2ccccc2)nn1C (stereo not given) | -13 |
| COCCCNC(=O)C(C)n1cc(Br)cn1 (stereo not given) | 16.8 |
| Cc1nn(C)c2c(=O)n(Cc3ccc(C#N)cc3)nnc12 | -10.1 |
| Cc1nn(C)c2c(NCCn3cccn3)ncnc12 | 5.55 |
| Cc1nc(NC2CCCC2)c2c(n1)c(C)nn2C | -14.9 |

| Compound | cytotoxicity at 70.5 h [%] |
| --- | --- |
| Cc1nc(NC2CC(C)(C)NC(C)(C)C2)c2c(n1)c(C)nn2C | -18.4 |
| Cc1nc(N2CCN(c3ccccc3)CC2)c2c(n1)c(C)nn2C | -2.17 |
| Cc1nc(NCCCn2cccn2)c2c(n1)c(C)nn2C | -3.99 |
| CCc1nc(NCc2ccccn2)c2c(n1)c(C)nn2C | 30.9 |
| Cc1nn(C)c2c(NCCCn3cccn3)nc(C(C)C)nc12 | 16.2 |
| Cc1nn(C)c2c(=O)n(C(C)C)c(NCCc3ccccc3)nc12 | 24.5 |
| CCCn1c(N2CCCCC2)nc2c(C)nn(C)c2c1=O | 15.3 |
| CCOc1ccc(NC(C)=O)cc1S(=O)(=O)Nc1ccon1 | 4.6 |
| COc1ccc(NC(C)=O)cc1S(=O)(=O)Nc1ccon1 | -5.66 |
| CC(C)(C)NCc1nn(Cc2ccccc2)nc1-c1ccccc1 | 5.21 |
| c1ccc(OCCCNCc2cccs2)nc1 | 10.1 |
| Fc1cccc(Cl)c1CNCCCOc1ccccn1 | -3.63 |
| Cc1ccc(CNc2n[nH]c(C)n2)cc1 | -10.9 |
| Cc1ccc(Cl)cc1N1CCN(CC(=O)NCc2ccco2)CC1 | 7.45 |
| CC(C)c1cc2c(s1)NC(c1ccccc1)NC2=O (stereo not given) | -12.1 |
| Cn1c(SCC(N)=O)nnc1-c1csc2c1CCCC2 | -9.11 |
| CCOc1cc(C(=O)n2cc(C)cn2)cc(OCC)c1OCC | 1.34 |
| O=S(=O)(c1ccc(N2CCCCC2)c2nonc12)N1CCCCC1 | -11.2 |
| O=S(=O)(c1cc(F)ccc1F)n1cc(Cl)cn1 | -4.29 |
| NC(=O)c1c(-c2ccc(Cl)cc2Cl)csc1NC(=O)CCCC(=O)O | 4.32 |
| CCn1cc(S(=O)(=O)N2CCN(S(=O)(=O)c3ccc(Br)s3)CC2)cn1 | -12 |
| CCOc1ccc(C(=O)n2cccn2)cc1 | -4.2 |
| CC(C)(C)NC(=O)N1CCN(Cc2cccnc2)CC1 | -3.39 |

| Compound | cytotoxicity at 70.5 h [%] |
| --- | --- |
| Cc1ccc(NC(=O)N2CCN(Cc3ccccn3)CC2)cc1Cl | 30.4 |
| Cc1c(Cl)cccc1NC(=O)N1CCN(Cc2ccccn2)CC1 | -3.15 |
| Cn1cc(CNS(=O)(=O)c2cc(F)ccc2F)cn1 | -6.49 |
| CCOC(=O)Cn1nnnc1-c1ccccc1 | -0.715 |
| CC(C)NC(=O)COc1ccc(-c2nc(C(C)C)no2)cc1 | -19.4 |
| Cc1ccc(NC(C)(C)c2nnnn2-c2ccc(Cl)cc2)c(C)c1 | 0.988 |
| CC1(C)CC2(CCO1)NC(=O)c1cc(Br)ccc1-n1nnnc12 (stereo not given) | 1.03 |
| Cc1cccc(-n2nnnc2C(C)(C)Nc2ccccc2C)c1 | 0.855 |
| COc1ccc(-n2nnnc2C2(NCc3ccco3)CCCCC2)cc1 | -9.96 |
| CN(C)S(=O)(=O)N1CCCC(C)(c2ncc(C(N)=O)s2)C1 (stereo not given) | 5.78 |
| Cc1nn(C)c(C)c1-c1cnc(CC2CCNCC2)cn1 | -4.79 |
| Cn1cc(CN2CCOC(c3cccc(-c4cccc(F)c4)n3)C2)cn1 (stereo not given) | -4.34 |
| Oc1cc(-c2cccs2)nc(C2CCCN(CC3=CCCOC3)C2)n1 (stereo not given) | -9.88 |
| O=C(c1cc2c(s1)CCC2)N1CCCC(c2cnccn2)C1 (stereo not given) | -17 |
| COc1ccc2[nH]cc(C(=O)N3C[C@@H](O)[C@H](N4CCOCC4)C3)c2c1 | -9.96 |
| O=C(NCc1ccccc1)C1CN(c2ccccn2)CCO1 (stereo not given) | -15.5 |
| Cc1cncc(C2CCCN2CCO)n1 (stereo not given) | -9.94 |
| CNCC(=O)N1CCC(c2cccc(Oc3ccccc3)n2)CC1 | -7.76 |
| c1cc(C2CCCN2CC2CC2)n[nH]1 (stereo not given) | -9.13 |
| c1ccc(CCN2CCCC2c2ccnc(Nc3ncccn3)n2)cc1 (stereo not given) | -5.57 |
| CCn1ccc(-c2cc(NCCCOc3ccccc3C)nc(C)n2)n1 | -1.9 |
| CCC(=O)N1CCCC1c1n[nH]cc1-c1ccccc1F (stereo not given) | -6.39 |
| CC(=O)N1CCOC(c2c(C(=O)NCCN(C)C)sc3ccccc23)C1 (stereo not given) | -7.61 |

| Compound | cytotoxicity at 70.5 h [%] |
| --- | --- |
| CCCn1cc(C(=O)N2CCCC2(C)c2nc(C)cc(C)n2)cn1 (stereo not given) | -13.9 |
| O=C(C1CCC1)N1C[C@@H](c2ccsc2)[C@@H]2CN(C3CCCC3)CC[C@@H]21 | -3.74 |
| Cc1cc(N(C)C)nc(C2CCCNC2)n1 (stereo not given) | -1.07 |
| Cc1cc(N(C)C)nc(C2CCCN2)n1 (stereo not given) | -3.78 |
| O=C(COCC1CC[C@H]2[C@H](CCN2c2ncccn2)O1)N1CCCC1 (stereo not given in full) | -6 |
| COCCNC(=O)[C@H]1CN(Cc2sccc2C)C[C@H]2OCC[C@@H]12 | 7.63 |
| COCCNC(=O)[C@@H]1CN(Cc2sccc2C)C[C@H]2OCC[C@H]21 | -2.35 |
| Cc1ccc(CN2Cc3c(C(=O)N4CCOCC4)nn(C)c3C2)s1 | -2.1 |
| O=C(c1ccccc1)N1CCC[C@]2(C[C@@H](Oc3ncccc3F)CO2)C1 | 23.2 |
| O=C(c1cccs1)N1C[C@@H]2OCCN(CC3CCCO3)[C@@H]2C1 (stereo not given in full) | 1.09 |
| Cc1nnc(N2CCCC3(CN(Cc4ccc(F)cc4)CCO3)C2)o1 (stereo not given) | -1.36 |
| O=C(c1cnoc1)N1CCC[C@]2(C[C@@H](Oc3ccccn3)CO2)C1 | -6.93 |
| CN(Cc1ccco1)[C@@H]1CN(C(=O)C2CCOCC2)C[C@@H]2CCCO[C@@H]21 | 0.92 |
| c1cc(-c2ccc3nc(C4CCN(CC5CC5)CC4)nn3c2)cs1 | -8.2 |
| O=C(C1CCOCC1)N1CCO[C@H]2[C@H](Oc3cccnc3)CC[C@@H]21 | -3.29 |
| O=C(Cc1cccs1)N1C[C@H]2CN(CC3CCCO3)CC[C@H]2C1 (stereo not given in full) | -6.25 |
| CN(C)C(=O)c1nn(C)c2c1CN(Cc1cccs1)C2 | -9.29 |
| COCCNC(=O)[C@H]1CN(Cc2csc(C)n2)C[C@H]2OCC[C@@H]12 | -3.29 |
| Cn1cc(CN2CCCC23CCN(Cc2nccn2C)CC3)cn1 | 3.37 |
| CN1CC(=O)N(c2ccsc2)CC12CCN(Cc1cnn(C)c1)C2 (stereo not given) | -0.306 |
| COCCN1C[C@@H]2[C@@H](OC)CCN(Cc3ccsc3)[C@@H]2C1 | -2.68 |
| CN1CC(=O)N(c2cnn(C)c2)CC12CCN(Cc1cccnc1)C2 (stereo not given) | 0.303 |
| CO[C@@H]1CCN(Cc2cccc(C)n2)[C@@H]2CN(Cc3ccncc3)C[C@@H]21 | -1.88 |
